The values that follow come from patent publication EP2096113A1, “9-substituted camptothecin derivatives as antitumor compounds” (SIGMA-TAU Industrie Farmaceutiche Riunite S.p.A., priority 2008, dated 2009).

What is called IC50 is the concentration at which inhibition is half-maximal.

One experiment concerns NCI-H460 non-microcytoma lung cancer cells.
Assay: not given
The conditions noted are these: topotecan value reported for comparison, from Dallavalle S. et al., J. Med. Chem., 44, 3264-74, 2001; read-out: IC50 (µM) H-460; cited from earlier work.
On to `CC[C@@]1(O)C(=O)OCc2c1cc1n(c2=O)Cc2cc3c(CN(C)C)c(O)ccc3nc2-1` [topotecan, 10-hydroxy-9-dimethylaminomethylcamptothecin], for which the IC50 is 1.38 µM.

The test system is the same in the next experiment. Kind of experiment: Cytotoxic activity on NCI-H460 cells (sulforodamine B test). Format: cell-based. The conditions noted are these: product concentration that inhibits cell survival by 50%; 2 hours incubation with products, then another 72 hours in drug-free medium; optical density at 540 nm; read-out: IC50 (µM) H-460. The method, then:
NCI-H460 non-microcytoma lung cancer cells were kept in RPMI 1640 culture medium containing 10% FCS and 1% glutamine. The cytotoxicity test to analyse the activity of the molecules was performed as follows. The cells were seeded in a volume of 250 µl in 96-well plates and incubated for 2 hours at 37°C with scalar concentrations of the products in a humidified atmosphere containing 5% CO2. At the end of the incubation, the molecules were removed by overturning the plates and adding sterile buffered saline solution (PBS) three times. The RPMI 1640 culture medium containing 10% FCS (200 µl) was added to the wells and the plates were incubated for another 72 hours. At the end of the incubation, the plates were overturned again and dried on paper, before adding 200 µl of PBS and 50 µl of 80% TCA. The plates were incubated again in ice for at least 1 hour. The TCA was removed by overturning the plates and the plates were first dried on paper and then washed three times by immersion in distilled water and overturning. The plates were dried first on paper and then in a thermostatically regulated incubator at 60°C for 10 min. 200 µl of 0.4% sulforodamine B in 1% acetic acid were added to all wells. The plates were incubated at room temperature for another 30 min. The sulforodamine B was removed by overturning, the plates were washed by immersion in 1% acetic acid three times and then dried first on blotting paper and then in the thermostat at 60°C for 10 min. Lastly, 200 µl of Tris base 10 mM were added to all wells and the plates were subjected to stirring for at least 20 min. The optical density was measured with a Multiskan spectrophotometer at 540 nm. Incubation with the products was capable of inhibiting proliferation in a concentration-dependent manner. Table 1 presents the IC50 values (product concentration that inhibits cell survival by 50%]. IC50 values for topotecan have also been reported for comparison purposes (Dallavalle S. et al., J. Med. Chem., 44, 3264-74, 2001). Table 1.
Regarding `CC[C@@]1(O)C(=O)OCc2c1cc1n(c2=O)Cc2cc3c(C=NOC(C)(C)C)c(OC)ccc3nc2-1` [10-OCH3-CPT-9-CH=NOC(CH3)3, 10-methoxy-9-tert-butoxyiminomethylcamptothecin], the IC50 was determined as 0.31 µM.

Consider `CC[C@@]1(O)C(=O)OCc2c1cc1n(c2=O)Cc2cc3c(C#N)c(OC)ccc3nc2-1` [10-OCH3-CPT-9-CN, 10-Methoxy-9-cyanocamptothecin], for which the IC50 worked out at 0.27 µM.

Take `CC[C@@]1(O)C(=O)OCc2c1cc1n(c2=O)Cc2cc3c(C=NOC(C)(C)C)c(O)ccc3nc2-1` [10-OH-CPT-9-CH=NOC(CH3)3, 10-hydroxy-9-tert-butoxyiminomethylcamptothecin]: the IC50 came out at 0.35 µM.

As for `CC[C@@]1(O)C(=O)OCc2c1cc1n(c2=O)Cc2cc3c(C=NOC(C)(C)C)cccc3nc2-1` [CPT-9-CH=NOC(CH3)3, 9-tert-Butoxyiminomethylcamptothecin], the IC50 stood at 0.067 µM.

As for `CC[C@@]1(O)C(=O)OCc2c1cc1n(c2=O)Cc2cc3c(C=NOCCN)cccc3nc2-1` [CPT-9-CH=NOCH2CH2NH2, 9-(2-Aminoethoxy)iminomethylcamptothecin], the IC50 came to 2.53 µM.
